Measurements: patent US6617425B1, “Peptides” (Novartis AG, priority 1996, dated 2003)

What was measured:
[1] = oral bioavailability in the rat; details: in vivo, read-out: absolute oral bioavailabilty
Description: The oral bioavailability of a model β-peptide according to the invention, β-HAla-β-HLys-β-HAla-β-HLeu-β-HLys-β-HAla-β-HLeu, TFA salt is determined in the rat using standard procedures. The absolute oral bioavailabilty is found to be about 1%. It is to be expected that greater oral bioavailability may be seeen with other compounds of the invention, having substituents selected to improve this property.

[2] = pharmacokinetics after intravenous administration to rats; details: in vivo, rat
Description: The above compound is also administered intravenously to rats and found to have a relatively long terminal half life in blood of about 10 hours, with a systemic clearance of about 15 ml/min/kg and a volume of distribution of about 2 l/kg. It appears therefore that the relatively low oral bioavailability of the compound is due to low absorption from the gastrointestinal tract.

bioavailability [1]: ~1%
half-life ([2]; blood, read-out: terminal half life in blood (converted)): ~10 h
clearance ([2]; read-out: systemic clearance): ~15 mL/min/kg
Vd ([2]; read-out: volume of distribution): ~2 L/kg
SMILES: CC(C)C[C@@H](CC(=O)O)NC(=O)C[C@H](C)NC(=O)C[C@H](CCCCN)NC(=O)C[C@H](CC(C)C)NC(=O)C[C@H](C)NC(=O)C[C@H](CCCCN)NC(=O)C[C@H](C)N [β-HAla-β-HLys-β-HAla-β-HLeu-β-HLys-β-HAla-β-HLeu]
